The values below come from patent US20120010254A1 (priority 2008, published 2012).

Where a name gives a salt, the structure may show the parent alone. Read-outs that look alike come from different tables or passages of the source.

Assay [1] addresses influenza virus sialidase (N1) (Influenza A virus, UniProt Q9WAA1). The assay can be described thus: biochemical.
The test system of assay [2] is avian influenza virus H5N1. Particulars: literature value, Li et al. ref. 12; read-out: EC50 value against avian influenza virus H5N1; cited from earlier work.

influenza virus sialidase (N1), sequence (Q9WAA1 whole entry, looked up): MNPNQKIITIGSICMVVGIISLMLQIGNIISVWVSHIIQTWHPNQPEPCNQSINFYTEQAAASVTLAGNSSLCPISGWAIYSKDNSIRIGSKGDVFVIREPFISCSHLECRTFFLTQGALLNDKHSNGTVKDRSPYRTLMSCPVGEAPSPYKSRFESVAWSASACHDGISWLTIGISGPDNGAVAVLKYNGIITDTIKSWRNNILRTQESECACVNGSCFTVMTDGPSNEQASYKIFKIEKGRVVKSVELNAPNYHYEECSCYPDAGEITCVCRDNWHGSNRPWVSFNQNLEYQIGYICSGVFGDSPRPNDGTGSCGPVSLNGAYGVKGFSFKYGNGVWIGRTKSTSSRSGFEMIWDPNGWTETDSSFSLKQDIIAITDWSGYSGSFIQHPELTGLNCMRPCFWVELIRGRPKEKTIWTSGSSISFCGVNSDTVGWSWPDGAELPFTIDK

For orientation: Ki means the dissociation constant of the complex between target and ligand, obtained from inhibition or displacement. For “4-Acetylamino-3-[4-((17α)-estra-1,3,5(10)-triene-3,17-dihydroxy-17-yl)-[1,2,3]triazol-1-yl]-5-(1-ethyl-propoxy)-cyclohex-1-enecarboxylic acid L-arginine salt [Compound 44]”, the Ki in assay [1] (read-out: Ki) turned out to be 59 µM.

With `CC(=O)N[C@H]1[C@H]([C@H](O)[C@H](O)CO)OC(C(=O)O)=C[C@@H]1N` [4-amino-4-deoxy-Neu5Ac2en, reference compound], the inhibition constant Ki in assay [1] (read-out: Ki) stood at 0.01 µM. One may read the EC50 as the concentration giving half of the maximal effect. On to `CC(=O)N[C@H]1[C@H]([C@H](O)[C@H](O)CO)OC(C(=O)O)=C[C@@H]1NC(=N)N` [4-deoxy-4-guanidino-Neu5Ac2en], for which the EC50 in assay [2] is 2.8 µM. With `CCC(CC)OC1CC(C(=O)O)=CC(n2cc(CCCO)nn2)C1NC(C)=O` (centres unmarked) [Compound 1, 4-Acetylamino-5-(1-ethyl-propoxy)-3-[4-(3-hydroxy-propyl)-[1,2,3]triazol-1-yl]-cyclohex-1-enecarboxylic acid], in assay [1], the affinity, expressed as Ki, was 5 µM. In turn, `CCC(CC)OC1CC(C(=O)O)=CC(n2cc(C(O)CC)nn2)C1NC(C)=O` (centres unmarked) [Compound 2, 4-Acetylamino-5-(1-ethyl-propoxy)-3-[4-(1-hydroxy-propyl)-[1,2,3]triazol-1-yl]-cyclohex-1-enecarboxylic acid] yielded a Ki in assay [1] of 0.7 µM.

In the case of `CCC(CC)OC1CC(C(=O)O)=CC(n2cc(C(C)(C)O)nn2)C1NC(C)=O` (centres unmarked) [Compound 3, 4-Acetylamino-5-(1-ethyl-propoxy)-3-[4-(1-hydroxy-1-methyl-ethyl)-[1,2,3]triazol-1-yl]-cyclohex-1-enecarboxylic acid], the Ki in assay [1] came out at 2 µM. As usually defined, the IC50 is the midpoint of a concentration-inhibition curve. A higher IC50 goes with lower potency. On to `CCC(CC)OC1CC(C(=O)O)=CC(n2cc(C3(O)CCCCC3)nn2)C1NC(C)=O` (centres unmarked) [Compound 5, 4-Acetylamino-5-(1-ethyl-propoxy)-3-[4-(1-hydroxy-cyclohexyl)-[1,2,3]triazol-1-yl]-cyclohex-1-enecarboxylic acid], for which, in assay [1], the half-inhibitory concentration (IC50) stood at 48 µM and the “Inhibitory activity in words” value was “less effective as inhibitors”. The corresponding values for `CCC(CC)OC1CC(C(=O)O)=CC(n2cc(C3(O)CCCC3)nn2)C1NC(C)=O` (centres unmarked) [Compound 6, 4-Acetylamino-5-(1-ethyl-propoxy)-3-[4-(1-hydroxy-cyclopentyl)-[1,2,3]triazol-1-yl]-cyclohex-1-enecarboxylic acid] are 110 µM and “less effective as inhibitors”.

The compound `CCC(CC)OC1CC(C(=O)O)=CC(N)C1NC(C)=O` (centres unmarked) [Compound 38, 4-Acetylamino-3-amino-5-(1-ethyl-propoxy)-cyclohex-1-enecarboxylic acid, reference compound] gave a Ki in assay [1] of 0.02 µM. Compound `CCC(CC)OC1CC(C(=O)O)=CC(NC(=N)N)C1NC(C)=O` (centres unmarked) [Compound 39, 4-Acetylamino-5-(1-ethyl-propoxy)-3-guanidino-cyclohex-1-enecarboxylic acid Trifluoroacetate salt] returned a Ki in assay [1] of 0.0048 µM. Still for that read-out and setting: to `CCC(CC)OC1CC(C(=O)O)=CC(n2cc(CCc3ccccc3)nn2)C1NC(C)=O` [Compound 43, 4-Acetylamino-5-(1-ethyl-propoxy)-3-(4-phenethyl-[1,2,3]triazol-1-yl)-cyclohex-1-enecarboxylic acid L-arginine salt] belongs 12 µM. Consider `CCC(O)c1cn([C@H]2C=C(C(=O)O)O[C@@H]([C@H](O)[C@H](O)CO)[C@@H]2NC(C)=O)nn1` (some centres unmarked) [formula (B)], for which, in assay [2], the EC50 was 6.4 µM.
